Laboratory results from PubChem BioAssay AID272 (DTP/NCI, 2004).
“And” between values parts separate entries of the source, which are not always exact repeats. Equal entries are not always repeated. Results filed as inconclusive are left out.

System: Lewis lung carcinoma i.m., BDF1 mice, T/C %
Assay: NCI In Vivo Anticancer Drug Screen. Data for tumor model Lewis Lung Carcinoma (intramuscular) in B6D2F1 (BDF1) mice
Summary of the method: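 Mice carrying transplantable tumours received test compound. Survival or tumour size was recorded and expressed as the treated-group value (T) divided by the vehicle-treated control-group value (C).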

[1] = endpoint: median survival time, dose: 0.25 mg/kg/injection, schedule: Q01DX011 (ip), vehicle: saline, higher = longer survival
[2] = endpoint: median survival time, dose: 0.5 mg/kg/injection, schedule: Q01DX011 (ip), vehicle: saline, higher = longer survival

For CO[C@@]12[C@H](COC(N)=O)C3=C(C(=O)C(C)=C(N)C3=O)N1C[C@@H]1N[C@@H]12, the T/C (endpoint: mean tumor weight, dose: 0.5 mg/kg/injection, schedule: Q01DX005 (ip), vehicle: other, higher = larger tumour) was 101 % of control, the T/C (endpoint: mean tumor weight, dose: 1.0 mg/kg/injection, schedule: Q01DX005 (ip), vehicle: other, higher = larger tumour) was 82 % of control and the T/C (endpoint: mean tumor weight, dose: 2.0 mg/kg/injection, schedule: Q01DX005 (ip), vehicle: other, higher = larger tumour) was 75 % of control. The T/C (endpoint: median survival time, dose: 0.25 mg/kg/injection, schedule: Q01DX009 (ip), vehicle: Klucel (hydroxypropylcellulose) (HPC), higher = longer survival) was 86 % of control and 112 % of control, the T/C [1] was 112 % of control and the T/C (endpoint: median survival time, dose: 0.5 mg/kg/injection, schedule: Q01DX005 (ip), vehicle: other, higher = longer survival) was 90 % of control. For the same molecule, the T/C (endpoint: median survival time, dose: 0.5 mg/kg/injection, schedule: Q01DX005 (ip), vehicle: saline, higher = longer survival) was 107 % of control, the T/C (endpoint: median survival time, dose: 0.5 mg/kg/injection, schedule: Q01DX009 (ip), vehicle: Klucel (hydroxypropylcellulose) (HPC), higher = longer survival) was 101 % of control and 110 % of control and the T/C [2] was 114 % of control. For the same molecule, the T/C (endpoint: median survival time, dose: 1.0 mg/kg/injection, schedule: Q01DX005 (ip), vehicle: saline, higher = longer survival) was 90 % of control, the T/C (endpoint: median survival time, dose: 1.0 mg/kg/injection, schedule: Q01DX009 (ip), vehicle: Klucel (hydroxypropylcellulose) (HPC), higher = longer survival) was 97 % of control and the T/C (endpoint: median survival time, dose: 1.0 mg/kg/injection, schedule: Q01DX011 (ip), vehicle: water, higher = longer survival) was 86 % of control. The T/C (endpoint: median survival time, dose: 2.0 mg/kg/injection, schedule: Q01DX005 (ip), vehicle: other, higher = longer survival) was 114 % of control, the T/C (endpoint: median tumor weight (est.), dose: 0.5 mg/kg/injection, schedule: Q01DX005 (ip), vehicle: saline, higher = larger tumour) was 64 % of control and the T/C (endpoint: median tumor weight (est.), dose: 1.0 mg/kg/injection, schedule: Q01DX005 (ip), vehicle: saline, higher = larger tumour) was 78 % of control.
With COC(=O)[CH](C[N+](=O)[O-])[Hg][Cl] (stereo not drawn) the T/C (endpoint: mean tumor weight (est.), dose: 3.12 mg/kg/injection, schedule: Q01DX011 (ip), vehicle: saline, higher = larger tumour) was 79 % of control, the T/C (endpoint: mean tumor weight (est.), dose: 6.25 mg/kg/injection, schedule: Q01DX011 (ip), vehicle: saline, higher = larger tumour) was 69 % of control and the T/C (endpoint: mean tumor weight (est.), dose: 12.5 mg/kg/injection, schedule: Q01DX011 (ip), vehicle: saline, higher = larger tumour) was 71 % of control. The T/C (endpoint: median survival time, dose: 3.12 mg/kg/injection, schedule: Q01DX011 (ip), vehicle: saline, higher = longer survival) was 107 % of control, the T/C (endpoint: median survival time, dose: 6.25 mg/kg/injection, schedule: Q01DX011 (ip), vehicle: saline, higher = longer survival) was 115 % of control and the T/C (endpoint: median survival time, dose: 12.5 mg/kg/injection, schedule: Q01DX011 (ip), vehicle: saline, higher = longer survival) was 88 % of control.
Cc1nc(N)nc(N)c1-c1ccc(Cl)c(Cl)c1 was tested, and the T/C (endpoint: mean tumor weight, dose: 6.0 mg/kg/injection, schedule: Q04DX004 (ip), vehicle: saline, higher = larger tumour) was 180 % of control, the T/C (endpoint: median survival time, dose: 4.0 mg/kg/injection, schedule: Q04DX004 (ip), vehicle: saline, higher = longer survival) was 100 % of control and the T/C (endpoint: median survival time, dose: 8.0 mg/kg/injection, schedule: Q04DX004 (ip), vehicle: saline, higher = longer survival) was 116 % of control.
C=CCN1/C(=C/C=C\c2sc3ccccc3[n+]2CC=C)Sc2ccccc21 was tested, and the T/C (endpoint: mean tumor weight (est.), dose: 0.07 mg/kg/injection, schedule: Q01DX011 (ip), vehicle: saline, higher = larger tumour) was 89 % of control, the T/C (endpoint: mean tumor weight (est.), dose: 0.13 mg/kg/injection, schedule: Q01DX011 (ip), vehicle: saline, higher = larger tumour) was 87 % of control and the T/C (endpoint: mean tumor weight (est.), dose: 0.25 mg/kg/injection, schedule: Q01DX011 (ip), vehicle: saline, higher = larger tumour) was 117 % of control. For the same molecule, the T/C (endpoint: mean tumor weight (est.), dose: 0.5 mg/kg/injection, schedule: Q01DX011 (ip), vehicle: saline, higher = larger tumour) was 93 % of control, the T/C (endpoint: mean tumor weight (est.), dose: 1.0 mg/kg/injection, schedule: Q01DX011 (ip), vehicle: saline, higher = larger tumour) was 113 % of control and the T/C (endpoint: median survival time, dose: 0.06 mg/kg/injection, schedule: Q01DX011 (ip), vehicle: saline, higher = longer survival) was 93 % of control. For the same molecule, the T/C (endpoint: median survival time, dose: 0.13 mg/kg/injection, schedule: Q01DX011 (ip), vehicle: saline, higher = longer survival) was 86 % of control, the T/C [1] was 87 % of control and the T/C [2] was 89 % of control.
